According to patent publication US9242984B2, “Pyrazolyl derivatives as Syk inhibitors” (Merck Sharp & Dohme Corp., priority 2012, dated 2016):
Read-outs that look alike come from different tables or passages of the source.

Target: T1, recombinant human Syk (GST-hSyk fusion protein) (Homo sapiens, UniProt P43405)
T1 construct: purchased Carna Biosciences 08-176
Assay: Homogeneous Time-Resolved Fluorescence (HTRF) assay for the recombinant human Syk enzyme
Format: biochemical
Conditions: 10-dose titration, 25 μM ATP
Outline: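 GST-hSyk (5 pM) preincubated 10 min with compound (0.1% DMSO) in 15 mM Tris-HCl pH 7.5, 2 mM DTT; reaction started with 250 nM biotinylated peptide, 5 mM Mg, 25 μM ATP, 45 min, room temperature. EDTA quench, Eu-anti-phosphotyrosine/SA-APC HTRF read after 30 min; IC50 from 10-dose titration (10 μM–0.508 nM), four-parameter fit.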

[1] = IC50 class, read-out: rhSYK Activity

SMILES	IC50 [1]	IC50 (read-out: rhSYK IC50)
Cc1cc(Nc2nccc(C)n2)cc(-c2cnn(C[C@@H](O)C(=O)O)c2)c1 [Example 11.10, (2R)-2-hydroxy-3-(4-{3-methyl-5-[(4-methylpyrimidin-2-yl)amino]phenyl}-1H-pyrazol-1-yl)propanoic acid]	≤ 100 nM	
Cc1cc(Nc2cc(C3CC3)ccn2)nc(-c2cnn(CC3(O)CCC3)c2)c1 [Example 29.7, 1-[(4-{6-[(4-cyclopropylpyridin-2-yl)amino]-4-methylpyridin-2-yl}-1H-pyrazol-1-yl)methyl]cyclobutanol]	≤ 100 nM	
Cc1cc(Nc2nccc(C(F)(F)F)n2)cc(-n2cc(C3(O)CCC(C(=O)O)CC3)cn2)c1 (centres unmarked) [Example 19.10, 4-hydroxy-4-[1-(3-methyl-5-{[4-(trifluoromethyl)pyrimidin-2-yl]amino}phenyl)-1H-pyrazol-4-yl]cyclohexanecarboxylic acid]	100 to 1000 nM	
CC(=O)N1CCN(C(=O)Cn2cc(-c3cc(C)cc(Nc4nccc(C(F)(F)F)n4)c3)cn2)CC1 [Example 3.7, N-(3-{1-[2-(4-acetylpiperazin-1-yl)-2-oxoethyl]-1H-pyrazol-4-yl}-5-methylphenyl)-4-(trifluoromethyl)-pyrimidin-2-amine]	≤ 100 nM	
Nc1cc(Nc2nccc(C(F)(F)F)n2)cc(-c2cnn(C3CCC(C(=O)O)CC3)c2)c1 (centres unmarked) [Example 1.51, 4-[4-(3-amino-5-{[4-(trifluoromethyl)pyrimidin-2-yl]amino}phenyl)-1H-pyrazol-1-yl]cyclohexanecarboxylic acid]	≤ 100 nM	
Cc1cc(Nc2nccc(C(F)(F)F)n2)cc(-c2cnn(C3CCC(C(=O)O)CC3O)c2)c1 (centres unmarked) [Example 5.39, 3-hydroxy-4-[4-(3-methyl-5-{[4-(trifluoromethyl)pyrimidin-2-yl]amino}phenyl)-1H-pyrazol-1-yl]cyclohexane-carboxylic acid]	≤ 100 nM	
Cc1cc(Nc2nccc(C(F)(F)F)n2)cc(-c2cnn(C3CCNC(=O)CC3)c2)c1 (single isomer, unassigned) [14 (isomer 1)]	≤ 100 nM	
Cc1cc(Nc2nccc(C(F)(F)F)n2)cc(-n2cc(C(C)(O)c3ccc(C(=O)O)cc3)cn2)c1 (single isomer, unassigned) [Example 19.7, 4-{1-hydroxy-1-[1-(3-methyl-5-{[4-(trifluoromethyl)pyrimidin-2-yl]amino}phenyl)-1H-pyrazol-4-yl]ethyl}benzoic acid]	≤ 100 nM	
Cc1cc(Nc2nccc(C(F)(F)F)n2)cc(-c2cnn(CC(C)(O)C(N)=O)c2)c1 (single isomer, unassigned) [Example 8.1, (R or S) 2-hydroxy-2-methyl-3-[4-(3-methyl-5-{[4-(trifluoromethyl)pyrimidin-2-yl]amino}phenyl)-1H-pyrazol-1-yl]propanamide]	≤ 100 nM	1 nM
Cc1cc(Nc2nccc(C(F)F)n2)cc(-c2cnn(C3CCCC(C)(O)C3O)c2)c1 (centres unmarked) [Example 22.6, 3-[4-(3-{[4-(difluoromethyl)pyrimidin-2-yl]amino}-5-methylphenyl)-1H-pyrazol-1-yl]-1-methylcyclohexane-1,2-diol]	≤ 100 nM	1.7 nM
Cc1cc(Nc2nccc(C(F)(F)F)n2)cc(-c2cnn(C[C@@H](C)CO)c2)c1 [Example 3.4, (2r)-2-methyl-3-[4-(3-methyl-5-{[4-(trifluoromethyl)-pyrimidin-2-yl]-amino}phenyl)-1H-pyrazol-1-yl]-propan-1-ol]	≤ 100 nM	
Cc1cc(Nc2nccc(C(F)F)n2)cc(-c2cnn(C(C[C@H](C)O)[C@@H](C)O)c2)c1 (stereo in doubt) [Example 2.53, 3-[4-(3-{[4-(difluoromethyl)pyrimidin-2-yl]amino}-5-methylphenyl)-1H-pyrazol-1-yl]hexane-2,5-diol]	≤ 100 nM	
Cc1cc(Nc2nccc(C(F)(F)F)n2)cc(-c2cnn(C3CCC(C(=O)O)C(C)(C)C3)c2)c1 (centres unmarked) [Example 2.59, 2,2-dimethyl-4-[4-(3-methyl-5-{[4-(trifluoromethyl)pyrimidin-2-yl]amino}phenyl)-1H-pyrazol-1-yl]cyclohexanecarboxylic acid]	≤ 100 nM	
Cc1cc(Nc2nccc(C(F)F)n2)cc(-c2cnn(CC(O)CN)c2)c1 (centres unmarked) [Example 5.37, 1-amino-3-[4-(3-{[4-(difluoromethyl)pyrimidin-2-yl]amino}-5-methylphenyl)-1H-pyrazol-1-yl]propan-2-ol]	≤ 100 nM	
Cc1cc(Nc2nccc(C(F)(F)F)n2)cc(-c2cnn(CC(C)(O)CO)c2)c1 (single isomer, unassigned) [Example 21.1, 2-Methyl-3-(4-(3-methyl-5-((4-(trifluoromethyl)pyrimidin-2-yl)amino)phenyl)-1H-pyrazol-1-yl)propane-1,2-diol]	≤ 100 nM	3.66 nM
Cc1cc(Nc2nccc(C(F)(F)F)n2)cc(-c2cnn(Cc3cc(C)no3)c2)c1 [Example 3.25, N-(3-methyl-5-{1-[(3-methylisoxazol-5-yl)methyl]-1H-pyrazol-4-yl}phenyl)-4-(trifluoromethyl)-pyrimidin-2-amine]	≤ 100 nM	
Cc1cc(Nc2nccc(C(F)F)n2)cc(-c2cnn(CCNC(=O)NC(C)(C)C)c2)c1 [Example 27.15, 1-tert-butyl-3-{2-[4-(3-{[4-(difluoromethyl)pyrimidin-2-yl]amino}-5-methylphenyl)-1H-pyrazol-1-yl]ethyl}urea]	≤ 100 nM	

SMILES	IC50 [1]	IC50 (read-out: rhSYK IC50)
Cc1cc(Nc2nccc(C(F)(F)F)n2)cc(-c2cnn([C@H]3CC[C@@H](O)CC3)c2)c1 [Example 15, cis-4-[4-(3-methyl-5-{[4-(trifluoromethyl)pyrimidin-2-yl]amino}phenyl)-1H-pyrazol-1-yl]cyclohexanol]	≤ 100 nM	5.9 nM
COc1ccnc(Nc2cc(C)cc(-c3cnn(CCC(=O)O)c3)c2)n1 [Example 2.1, 3-(4-(3-((4-methoxypyrimidin-2-yl)amino)-5-methylphenyl)-1H-pyrazol-1-yl)propanoic acid]	≤ 100 nM	22.1 nM
Cc1cc(Nc2nccc(C(F)F)n2)cc(-c2cnn(CC(O)CF)c2)c1 (centres unmarked) [Example 5.19, 1-[4-(3-{[4-(difluoromethyl)pyrimidin-2-yl]amino}-5-methylphenyl)-1H-pyrazol-1-yl]-3-fluoropropan-2-ol]	≤ 100 nM	
Cc1cc(Nc2nccc(C(F)F)n2)cc(-c2cnn(CC(O)CC3(O)CCCCC3)c2)c1 (centres unmarked) [Example 5.27, 1-{3-[4-(3-{[4-(difluoromethyl)pyrimidin-2-yl]amino}-5-methylphenyl)-1H-pyrazol-1-yl]-2-hydroxypropyl}cyclohexanol]	≤ 100 nM	
Cc1cc(Nc2nccc(C(C)C)n2)cc(-c2cnn(CC3CNC(=O)O3)c2)c1 (centres unmarked) [Example 2.24, 5-{[4-(3-methyl-5-{[4-(1-methylethyl)pyrimidin-2-yl]amino}phenyl)-1H-pyrazol-1-yl]methyl}-1,3-oxazolidin-2-one]	≤ 100 nM	
Cc1cc(Nc2cc(C(F)(F)F)ccn2)nc(-c2cnn(C)c2)c1 [Example 1.13, 4-methyl-6-(1-methyl-1H-pyrazol-4-yl)-N-[4-(trifluoromethyl)pyridin-2-yl]pyridin-2-amine]	≤ 100 nM	
Cc1cc(Nc2nccc(C(F)F)n2)cc(-c2cnn(C(C)C3CNC(=O)C3)c2)c1 (centres unmarked) [Example 2.67, 4-{1-[4-(3-{[4-(difluoromethyl)pyrimidin-2-yl]amino}-5-methylphenyl)-1H-pyrazol-1-yl]ethyl}pyrrolidin-2-one]	≤ 100 nM	
Cc1cc(Nc2nccc(C(F)F)n2)cc(-c2cnn(CC(O)C(N)=O)c2)c1 (centres unmarked) [Example 5.18, 3-[4-(3-{[4-(difluoromethyl)pyrimidin-2-yl]amino}-5-methylphenyl)-1H-pyrazol-1-yl]-2-hydroxypropanamide]	≤ 100 nM	
Cc1cc(Nc2nccc(C)n2)cc(-c2cnn(C3CCC(C(=O)O)CC3)c2)c1 (centres unmarked) [Example 1.59, 4-(4-{3-methyl-5-[(4-methylpyrimidin-2-yl)amino]phenyl}-1H-pyrazol-1-yl)cyclohexanecarboxylic acid]	≤ 100 nM	
O=C(O)CCn1cc(-c2cccc(Nc3nccc(C(F)(F)F)n3)c2)cn1 [Example 2.5, 3-[4-(3-{[4-(trifluoro-methyl)pyrimidin-2-yl]amino}phenyl)-1H-pyrazol-1-yl]-propanoic acid]	≤ 100 nM	
Cc1cc(Nc2nccc(C(F)F)n2)cc(-c2cnn(CC(O)COCC(F)(F)F)c2)c1 (centres unmarked) [Example 5.31, 1-[4-(3-{[4-(difluoromethyl)pyrimidin-2-yl]amino}-5-methylphenyl)-1H-pyrazol-1-yl]-3-(2,2,2-trifluoroethoxy)propan-2-ol]	≤ 100 nM	
Cc1cc(Nc2nccc(C(F)F)n2)cc(-c2cnn(CCNC(=O)OCCF)c2)c1 [Example 27.18, 2-fluoroethyl {2-[4-(3-{[4-(difluoromethyl)pyrimidin-2-yl]amino}-5-methylphenyl)-1H-pyrazol-1-yl]ethyl}carbamate]	≤ 100 nM	
Cc1cc(Nc2cc(C)c(Cl)cn2)nc(-n2cc(CCC(=O)O)cn2)c1 [Example 18.4, 3-(1-{6-[(5-chloro-4-methylpyridin-2-yl)amino]-4-methylpyridin-2-yl}-1H-pyrazol-4-yl)propanoic acid]	100 to 1000 nM	
Cc1cc(Nc2nccc(C(F)F)n2)cc(-c2cnn(CC3CC(=O)NC3C)c2)c1 (centres unmarked) [Example 2.76, 4-{[4-(3-{[4-(difluoromethyl)pyrimidin-2-yl]amino}-5-methylphenyl)-1H-pyrazol-1-yl]methyl}-5-methylpyrrolidin-2-one]	≤ 100 nM	
Cc1cc(Nc2ncc(F)c(C(F)F)n2)cc(-c2cnn(CC(C)(O)CO)c2)c1 (single isomer, unassigned) [Example 25.9, 3-[4-(3-{[4-(difluoromethyl)-5-fluoropyrimidin-2-yl]amino}-5-methylphenyl)-1H-pyrazol-1-yl]-2-methylpropane-1,2-diol]	≤ 100 nM	
Cc1cc(Nc2nccc(C(F)F)n2)cc(-c2cnn(CC(O)C(=O)O)c2)c1 (centres unmarked) [Example 5.36, 3-[4-(3-{[4-(difluoromethyl)pyrimidin-2-yl]amino}-5-methylphenyl)-1H-pyrazol-1-yl]-2-hydroxypropanoic acid]	≤ 100 nM	
